Results from US7932270B2 (Cytokinetics, Inc., priority 2006, dated 2011).

Each compound was assayed against T1, chicken gizzard smooth muscle myosin subfragment-1 chemically crosslinked to cardiac or skeletal actin (Gallus gallus, UniProt P10587) (assay: Smooth muscle myosin ATPase dose response assay (pyruvate kinase/horseradish peroxidase/pyruvate oxidase-coupled, amplex red fluorescence)). Conditions: read-out: IC50 Arithmetic Mean.
T1 construct: chicken gizzard smooth muscle myosin subfragment-1; from tissue; host or cells: chicken gizzard
Format: biochemical
Protocol: In Vitro Model of Dose Dependent Smooth Muscle Myosin ATPase Modulation
Screening assays were performed using a pyruvate kinase and lactate dehydrogenase-coupled ATPase assay containing the following reagents: Potassium PIPES (50 mM), MgCl2 (3 mM), KCl (100 mM), ATP (0.15 mM), DTT (1 mM), BSA (0.1 mg/ml), NADH (0.5 mM), PEP (1.5 mM), pyruvate kinase (4 U/ml), lactate dehydrogenase (8 U/ml), and antifoam (50 ppm) (concentrations expressed are final assay concentrations). The pH was adjusted to 6.80 at 22° C. by addition of potassium hydroxide. Lead optimization assays were performed with a more sensitive pyruvate kinase/horseradish peroxidase/pyruvate oxidase-coupled ATPase assay containing the following reagents: Potassium PIPES (12 mM), MgCl2 (2 mM), KCl (100 mM), ATP (0.15 mM), BSA (0.05 mg/ml), potassium phosphate (2 mM), amplex red (0.1 mM), PEP (0.1 mM), pyruvate kinase (4 U/ml), horseradish peroxidase (0.5 U/ml), pyruvate oxidase (0.5 U/ml), and antifoam (50 ppm) (concentrations expressed are final assay concentrations). The pH was adjusted to 7.00 at 22° C. by addition of potassium hydroxide.
The protein components specific to this assay are chicken gizzard smooth muscle myosin subfragment-1 that has been chemically crosslinked to either cardiac or skeletal actin using an excess of 1-Ethyl-3-[3-dimethylaminopropyl]carbodiimide hydrochloride and N-hydroxysuccinimide. The exact concentration of the crosslinked smooth muscle myosin in the assay is determined empirically, by titration to achieve a desired rate of ATP hydrolysis. The concentration varies between protein preparations due to variations in the fraction of active molecules in each preparation.
Compound dose response assays are performed by first preparing a dilution series of test compound, each with an assay mixture containing potassium PIPES, MgCl2, KCl, ATP, BSA, potassium phosphate, amplex red, PEP, crosslinked smooth muscle actomyosin (subfragment-1), antifoam, and water. The assay is started by adding an equal volume of solution containing potassium Pipes, MgCl2, KCl, BSA, potassium phosphate, pyruvate kinase, horseradish peroxidase, pyruvate oxidase, antifoam, and water. ATP hydrolysis is monitored by measuring the fluorescence of amplex red (excitation at 480 nm, emission at 615 nm). The resulting dose response curve is fit by the 4 parameter equation y=Bottom+((Top-Bottom)/(1+((IC50/X)^Hill))). The IC50 is defined as the concentration at which ATPase activity is midway between the top and bottom of the dose response curve.

T1 sequence (P02607 2-151): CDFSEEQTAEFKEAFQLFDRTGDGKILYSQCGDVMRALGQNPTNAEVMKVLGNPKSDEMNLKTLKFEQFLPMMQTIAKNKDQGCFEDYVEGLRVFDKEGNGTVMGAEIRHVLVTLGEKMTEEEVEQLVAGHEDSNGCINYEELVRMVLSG
T1 sequence (P10587 84-789): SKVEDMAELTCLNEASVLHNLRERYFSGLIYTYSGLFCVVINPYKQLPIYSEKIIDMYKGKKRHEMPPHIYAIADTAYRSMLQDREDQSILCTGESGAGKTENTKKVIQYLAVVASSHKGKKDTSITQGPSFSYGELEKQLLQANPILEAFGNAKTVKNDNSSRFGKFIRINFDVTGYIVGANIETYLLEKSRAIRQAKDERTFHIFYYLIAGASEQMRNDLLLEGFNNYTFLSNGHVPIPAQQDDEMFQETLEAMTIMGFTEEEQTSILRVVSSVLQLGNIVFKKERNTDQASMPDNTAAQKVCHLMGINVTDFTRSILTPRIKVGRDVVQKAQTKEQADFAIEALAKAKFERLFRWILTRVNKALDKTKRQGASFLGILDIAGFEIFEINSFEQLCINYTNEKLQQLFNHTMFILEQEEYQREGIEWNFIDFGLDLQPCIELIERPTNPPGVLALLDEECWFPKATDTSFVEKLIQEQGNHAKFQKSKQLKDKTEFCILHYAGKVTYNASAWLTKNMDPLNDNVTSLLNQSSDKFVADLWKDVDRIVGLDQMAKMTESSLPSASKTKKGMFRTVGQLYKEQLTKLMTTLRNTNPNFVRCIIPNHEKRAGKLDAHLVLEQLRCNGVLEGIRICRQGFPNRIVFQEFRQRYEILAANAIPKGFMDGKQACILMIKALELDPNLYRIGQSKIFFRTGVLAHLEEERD

IC50 [nM] | Structure (SMILES)
1080 | Cc1cc(-c2ccccc2C#N)nc(NCCc2cccc(F)c2)c1C(=O)NCc1cccnc1 [(6-(2-cyanophenyl)-2-{[2-(3-fluorophenyl)ethyl]amino}-4-methyl(3-pyridyl))-N-(3-pyridylmethyl)carboxamide]
66 | Cn1cc(-c2nc(NCCc3cccc(F)c3)c(C(=O)NC[C@H]3CCCN3C(=O)CN)cc2F)cn1 [N-{[(2R)-1-(2-aminoacetyl)pyrrolidin-2-yl]methyl}(5-fluoro-2-{[2-(3-fluorophenyl)ethyl]amino}-6-(1-methylpyrazol-4-yl)(3-pyridyl))carboxamide]
119 | O=C1CC[C@H](CNC(=O)c2ccc(-c3cn[nH]c3)nc2NCCc2cccc(F)c2)N1 [N-[((2R)-5-oxopyrrolidin-2-yl)methyl](2-{[2-(3-fluorophenyl)ethyl]amino}-6-pyrazol-4-yl(3-pyridyl))carboxamide]
42 | N#Cc1ccccc1-c1ccc(C(=O)NC[C@H]2CCC(=O)N2CCCN)c(NCCc2cccc(F)c2)n1 [N-{[(2R)-1-(3-aminopropyl)-5-oxopyrrolidin-2-yl]methyl}(6-(2-cyanophenyl)-2-{[2-(3-fluorophenyl)ethyl]amino}(3-pyridyl))carboxamide]
21 | Cn1cc(-c2nc(NCCc3cccc(F)c3)c(C(=O)NCc3cccnc3)cc2Cl)cn1 [(5-chloro-2-{[2-(3-fluorophenyl)ethyl]amino}-6-(1-methylpyrazol-4-yl)(3-pyridyl))-N-(3-pyridylmethyl)carboxamide]
336 | N#Cc1ccccc1-c1ccc(C(=O)NCC2CCNCC2)c(NCCc2cccc(F)c2)n1 [(6-(2-cyanophenyl)-2-{[2-(3-fluorophenyl)ethyl]amino}(3-pyridyl))-N-(4-piperidylmethyl)carboxamide]
1600 | Cn1cc(-c2nc(NCCc3cccc(F)c3)c(C(=O)NC[C@H]3CCCN3C(=O)OC(C)(C)C)cc2Cl)cn1 [tert-butyl (2R)-2-{[(5-chloro-2-{[2-(3-fluorophenyl)ethyl]amino}-6-(1-methylpyrazol-4-yl)(3-pyridyl))carbonylamino]methyl}pyrrolidinecarboxylate]
4650 | N#Cc1cccc(CCNc2nc(-c3ccccc3)ccc2C(=O)NCc2cccnc2)c1 [(2-{[2-(3-cyanophenyl)ethyl]amino}-6-phenyl(3-pyridyl))-N-(3-pyridylmethyl)carboxamide]
7120 | O=C(NCc1cccnc1)c1ccc(-c2ccccc2)nc1NCCC1OCCO1 [{2-[(2-(1,3-dioxolan-2-yl)ethyl)amino]-6-phenyl(3-pyridyl)}-N-(3-pyridylmethyl)carboxamide]

Structure (SMILES) | IC50 [nM]
CC(C)(C)OC(=O)NCCCN1C(=O)CC[C@H]1CNC(=O)c1ccc(-c2ccccc2C#N)nc1NCCc1cccc(F)c1 [N-[((2S)-1-{3-[(tert-butoxy)carbonylamino]propyl}-5-oxopyrrolidin-2-yl)methyl](6-(2-cyanophenyl)-2-{[2-(3-fluorophenyl)ethyl]amino}(3-pyridyl))carboxamide] | 4520
Cn1cc(-c2nc(NCCc3cccc(F)c3)c(C(=O)NC[C@H]3CCN3C(=O)CCCNC(=O)OC(C)(C)C)cc2F)cn1 [N-[((2R)-1-{4-[(tert-butoxy)carbonylamino]butanoyl}azetidin-2-yl)methyl](5-fluoro-2-{[2-(3-fluorophenyl)ethyl]amino}-6-(1-methylpyrazol-4-yl)(3-pyridyl))carboxamide] | 122
CN(CCNC(=O)CNC(=O)c1ccc(-c2ccccc2C#N)nc1NCCc1cccc(F)c1)C(=O)OC(C)(C)C [N-{2-[(tert-butoxy)-N-methylcarbonylamino]ethyl}-2-[(6-(2-cyanophenyl)-2-{[2-(3-fluorophenyl)ethyl]amino}(3-pyridyl))carbonylamino]acetamide] | 65500
CC(C)(C)OC(=O)NCC(=O)N1CC[C@@H]1CNC(=O)c1ccc(-c2cn[nH]c2)nc1NCCc1cccc(F)c1 [N-[((2R)-1-{2-[(tert-butoxy)carbonylamino]acetyl}azetidin-2-yl)methyl](2-{[2-(3-fluorophenyl)ethyl]amino}-6-pyrazol-4-yl(3-pyridyl))carboxamide] | 2990
